# Data taken from publication PMC11436673 (Journal of Experimental Pharmacology, 2024).
# Target: T1, human monoacylglycerol lipase (MGL) (Homo sapiens, UniProt Q99685)
# T1 sequence (Q99685 1-303): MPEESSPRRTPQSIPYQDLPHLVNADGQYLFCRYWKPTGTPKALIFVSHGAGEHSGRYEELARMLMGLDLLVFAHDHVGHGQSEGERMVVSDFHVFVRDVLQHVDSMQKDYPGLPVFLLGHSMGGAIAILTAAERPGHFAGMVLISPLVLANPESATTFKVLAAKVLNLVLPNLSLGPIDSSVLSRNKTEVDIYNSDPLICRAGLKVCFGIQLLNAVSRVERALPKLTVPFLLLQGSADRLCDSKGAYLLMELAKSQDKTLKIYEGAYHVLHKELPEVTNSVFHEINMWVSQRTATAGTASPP
# Type: biochemical
compound,measurement,value
CC[C@H](CC[C@@H](C)[C@H]1CC[C@H]2[C@@H]3CC=C4C[C@@H](O)CC[C@]4(C)[C@H]3CC[C@]12C)C(C)C [beta-sitosterol],IC50,19.5 µM
